Assay results from PubChem BioAssay (NCI).
“And” between values parts separate entries of the source, which are not always exact repeats. Identical values can stand only once.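 Test compounds were applied to cells in 96-well plates for 48 hours at 5 doses. The concentration for 50% growth inhibition is given as GI50. TGI: concentration producing complete growth inhibition.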

What was measured:
Experiment in all cases: inhibition of tumour cell growth, NCI panel, 48 h
IGROV1 ovarian = tested on: IGROV1 ovarian
BT-549 breast = tested on: BT-549 breast
K-562 leukemia = tested on: K-562 leukemia
NCI-H522 lung = tested on: NCI-H522 lung
SK-OV-3 ovarian = tested on: SK-OV-3 ovarian
SF-268 CNS = tested on: SF-268 CNS
UACC-62 melanoma = tested on: UACC-62 melanoma
U251 CNS = tested on: U251 CNS
HOP-92 NSCLC = tested on: HOP-92 NSCLC
DU-145 prostate = tested on: DU-145 prostate
OVCAR-4 ovarian = tested on: OVCAR-4 ovarian
HCT-15 colon = tested on: HCT-15 colon
CAKI-1 renal = tested on: CAKI-1 renal
HOP-62 NSCLC = tested on: HOP-62 NSCLC
UACC-257 melanoma = tested on: UACC-257 melanoma
HT29 colon = tested on: HT29 colon
CCRF-CEM leukemia = tested on: CCRF-CEM leukemia

Row | SMILES | TGI (IGROV1 ovarian) | TGI (BT-549 breast) | TGI (K-562 leukemia) | TGI (NCI-H522 lung) | TGI (SK-OV-3 ovarian) | TGI (SF-268 CNS) | TGI (UACC-62 melanoma) | TGI (U251 CNS) | TGI (HOP-92 NSCLC) | TGI (DU-145 prostate) | TGI (OVCAR-4 ovarian) | TGI (HCT-15 colon) | TGI (CAKI-1 renal) | TGI (HOP-62 NSCLC) | TGI (UACC-257 melanoma) | TGI (HT29 colon) | TGI (CCRF-CEM leukemia) | GI50 (HOP-62 NSCLC)
1 | CCC1=NC(N/N=C/c2ccco2)=N/C1=C\c1ccco1 | > 100 µM | > 100 µM | > 100 µM | > 100 µM | > 100 µM | > 100 µM | > 100 µM | > 100 µM | > 100 µM | > 100 µM | > 100 µM | > 100 µM | > 100 µM | > 100 µM | > 100 µM | > 100 µM | > 100 µM | –
2 | COc1cccc(C=C(C#N)C#N)c1OC | > 100 µM | > 100 µM | > 100 µM | > 100 µM | > 100 µM | > 100 µM | > 100 µM | > 100 µM | > 100 µM | > 100 µM | > 100 µM | > 100 µM | > 100 µM | > 100 µM | > 100 µM | > 100 µM | > 100 µM | –
3 | COc1c(OC)c(OC)c2c(=O)c(OC)c(-c3ccc4c(c3)OCO4)oc2c1OC | > 100 µM | > 100 µM | > 100 µM | > 100 µM | > 100 µM | > 100 µM | > 100 µM | > 100 µM | > 100 µM | > 100 µM | > 100 µM | > 100 µM | > 100 µM | > 100 µM | > 100 µM | > 100 µM | > 100 µM | –
4 | CC(C)C(=O)/C=C/c1ccc(Cl)cc1Cl | 28.4 µM | 14.9 µM | > 100 µM | 22.8 µM | 33.7 µM | 22.5 µM | 25.7 µM | 25.2 µM | 30.8 µM | 27.2 µM | 20.9 µM | 25.2 µM | 24.8 µM | 33.1 µM | 26 µM | 13.4 µM | 50.7 µM | –
5 | COc1ccc(N2C(=O)C3c4[nH]c5ccc(OC)cc5c4C4CCC(c5ccccc5)CC4C3C2=O)cc1 (stereo not drawn) | 62.2 µM | 58.7 µM | > 43.9 µM | 27.4 µM | 26.1 µM | > 46.6 µM | 36.4 µM | 22.8 µM | 35.9 µM | > 100 µM | 19.3 µM | > 100 µM | 40.6 µM | 20.8 µM | > 88.9 µM | > 40.5 µM | 10.3 µM | –
6 | Clc1ccc(C2=Cc3nc2c(-c2ccccc2)c2ccc([nH]2)c(-c2ccccc2)c2nc(c(-c4ccccc4)c4ccc([nH]4)c3-c3ccccc3)C=C2)cc1 | > 62.5 µM | > 62.5 µM | > 62.5 µM | > 62.5 µM | > 62.5 µM | > 62.5 µM | > 62.5 µM | > 62.5 µM | > 62.5 µM | > 62.5 µM | > 62.5 µM | > 62.5 µM | 49.9 µM | > 62.5 µM | > 62.5 µM | > 62.5 µM | > 62.5 µM | –
7 | N#CCc1nc(-c2cc3ccc(O)cc3oc2=O)cs1 | > 100 µM | > 100 µM | > 100 µM | > 100 µM | > 100 µM | > 100 µM | 63.3 µM | > 100 µM | > 100 µM | > 100 µM | > 100 µM | > 100 µM | > 100 µM | > 100 µM | > 100 µM | > 100 µM | > 100 µM | –
8 | COc1ccccc1CC1(O)OC(=O)c2ccccc21 (stereo not drawn) | > 100 µM | > 100 µM | > 100 µM | > 100 µM | > 100 µM | > 100 µM | > 100 µM | > 100 µM | > 100 µM | > 100 µM | > 100 µM | > 100 µM | > 100 µM | > 100 µM | > 100 µM | > 100 µM | > 100 µM | –
9 | NC(=S)NN=C1Cc2ccccc2C1 | > 100 µM | > 100 µM | > 100 µM | > 100 µM | > 100 µM | > 100 µM | > 100 µM | > 100 µM | > 100 µM | > 100 µM | > 100 µM | > 100 µM | > 100 µM | > 100 µM | > 100 µM | > 100 µM | > 100 µM | –
10 | CC(=O)OC1OC(C2c3cccc(O)c3C(=O)c3c(O)cc(CO)cc32)C(O)C(O)C1O (stereo not drawn) | 20.8 µM and 21.1 µM | 22.6 µM and 47.1 µM | > 100 µM | 18.8 µM and 16.7 µM | 18.3 µM and 90.8 µM | 21.8 µM and 33.6 µM | 16.6 µM and 17.7 µM | 22.6 µM | 9.38 µM | > 100 µM and 84.1 µM | > 100 µM | 9.33 µM and 11.2 µM | 7.51 µM and 7.82 µM | 11.6 µM and 18.5 µM | 32.8 µM and 33.7 µM | > 100 µM | 21.5 µM and 17.9 µM | 2.38 µM and 5.03 µM
11 | O=S(=O)(N1CCCCN(S(=O)(=O)C(F)(F)F)CCCN(S(=O)(=O)C(F)(F)F)CCCCN(S(=O)(=O)C(F)(F)F)CCCN(S(=O)(=O)C(F)(F)F)CCCCN(S(=O)(=O)C(F)(F)F)CCCN(S(=O)(=O)C(F)(F)F)CCCCN(S(=O)(=O)C(F)(F)F)CCC1)C(F)(F)F | > 31.6 µM | > 31.6 µM | > 31.6 µM | > 31.6 µM | > 31.6 µM | > 31.6 µM | > 31.6 µM | > 100 µM | > 31.6 µM | > 31.6 µM | > 100 µM | > 31.6 µM | > 31.6 µM | > 31.6 µM | > 31.6 µM | > 31.6 µM | > 31.6 µM | –
12 | CCCCCCCCCCCCCCCCCCOC(COP(=O)(O)OCC1OC(n2cc(F)c(=O)[nH]c2=O)CC1O)COP(=O)(O)OCC1OC(n2ccc(N)nc2=O)C(O)C1O (stereo not drawn) | > 100 µM | > 93.2 µM | > 100 µM | > 100 µM | > 100 µM | > 75 µM | > 100 µM | 50.7 µM | > 94.8 µM | > 100 µM | > 100 µM | > 100 µM | > 100 µM | > 100 µM | > 100 µM | > 100 µM | > 81.2 µM | –
13 | COc1cc(/C=C2\CC3C4CC[C@H]5C[C@@H](O)CC[C@]5(C)C4CC[C@]3(C)\C2=N\O)cc(OC)c1OC (stereo partly drawn) | > 100 µM | 42.1 µM | > 100 µM | 94.8 µM | 72.3 µM | > 100 µM | 35 µM | 30.9 µM | > 100 µM | > 100 µM | 37.9 µM | > 100 µM | 29.3 µM | 38.9 µM | 56.7 µM | > 100 µM | > 100 µM | –
14 | O=C(O)C(C(F)(F)F)C(F)(F)F (tested in a mixture with another compound) | > 100 µM | > 100 µM | > 100 µM | > 100 µM | > 100 µM | > 100 µM | > 100 µM | > 100 µM | > 100 µM | > 100 µM | > 100 µM | > 100 µM | > 100 µM | > 100 µM | > 100 µM | > 100 µM | > 100 µM | –
15 | CC(CCCCNC(=O)OC(C)(C)C)NC(=O)NC(C)CCCCNC(=O)OC(C)(C)C (stereo not drawn) | > 100 µM | > 100 µM | > 100 µM | > 100 µM | > 100 µM | > 100 µM | > 100 µM | > 100 µM | > 100 µM | > 100 µM | > 100 µM | > 100 µM | > 100 µM | > 100 µM | > 100 µM | > 100 µM | > 100 µM | –
16 | CCOC(=O)/C=C/C1=C(Br)[C@@]2(C)CC[C@@H]3c4ccc(O)cc4CC[C@H]3[C@@H]2C1 | 24.7 µM | 27.3 µM | 24.9 µM | 14.2 µM | 28.7 µM | 33 µM | 19.4 µM | 30.3 µM | 23.8 µM | 19.1 µM | 27.7 µM | 24.4 µM | 30 µM | 27.5 µM | 26.8 µM | 27.8 µM | 32.3 µM | –
17 | Cc1cc(=O)[nH]c(S(=O)(=O)NC(=O)Nc2cccc(Cl)c2)n1 | > 100 µM | > 100 µM | > 100 µM | > 100 µM | > 100 µM | > 100 µM | > 100 µM | > 100 µM | > 100 µM | > 100 µM | > 41.7 µM | > 100 µM | > 22.3 µM | > 100 µM | > 100 µM | > 100 µM | > 100 µM | –
18 | CCOC(=O)/C=C(/C(=O)OCC)n1cc(C)c(=O)[nH]c1=O | 12.9 µM | 22.8 µM | 4.73 µM | 2.14 µM | 32.4 µM | 24.6 µM | 15.8 µM | 18.8 µM | 3.72 µM | 29.7 µM | > 32.2 µM | 4.92 µM | 2.57 µM | 33.2 µM | 26 µM | 15.1 µM | 4.61 µM | –
19 | O=C(O)c1ccc(C2=Nc3cccc4cccc(c34)N2)cc1 | > 100 µM | > 100 µM | > 100 µM | > 100 µM | > 100 µM | > 100 µM | > 100 µM | > 100 µM | > 100 µM | > 100 µM | > 100 µM | > 100 µM | > 100 µM | > 100 µM | > 100 µM | > 100 µM | > 100 µM | –
20 | CCOC(=O)c1cccc(N=Nc2ncc(/C=C/C(=O)OC)[nH]2)c1 | 83.8 µM | > 100 µM | > 100 µM | 47.2 µM | > 100 µM | > 100 µM | 63.2 µM | > 100 µM | > 100 µM | > 100 µM | > 100 µM | > 100 µM | > 100 µM | 51.3 µM | 46.4 µM | > 100 µM | > 100 µM | –
21 | CNc1ccc(Cl)cc1C(=O)N1CCC[C@H]1CO | > 100 µM | > 100 µM | > 100 µM | > 100 µM | > 100 µM | > 100 µM | > 100 µM | > 100 µM | > 100 µM | > 100 µM | > 100 µM | > 100 µM | > 100 µM | > 100 µM | > 100 µM | > 100 µM | > 100 µM | –
